Measurements from publication PMC11040670, “Mechanistic and Kinetic Insights into Cellular Uptake of Biomimetic Dinitrosyl Iron Complexes and Intracellular Delivery of NO for Activation of Cytoprotective HO-1” (JACS Au, 2024).
Where “and” joins values, the source holds several entries; their conditions need not be identical. Equal values may be shown once. Marks after values point to notes of the source that are not given here.

What was measured:
metMb = biological target: T1, metMb (Equus caballus, UniProt P68082); experiment: Transfer of NO− to metMb yielding MbNO (UV–vis); assay type: biochemical; conditions: for reaction time for complete conversion of metMb into MbNO: metMb 5 μM/Cys 200 μM, generated [(NO)2Fe(SR)(SCys)]n−, phosphate buffer (pH 7.4), anaerobic; for change of UV–vis absorption bands of metMb (NO−-transfer): metMb in the presence of BSA (50 mg/mL)
T1 construct: purchased Sigma
Protocol: After addition of 30 μL of 500 μM stock solution of DNIC–COOH (in DMSO) to a 4 mL quartz cuvette containing 5 μM metMb and 200 μM Cys in 3 mL of 25 mM PBS (pH 7.4), UV–vis spectra for this mixture solution were measured every 30 min. Transformation of […] into MbNO was achieved after reaction for 4 h based on the complete shift of UV–vis absorption bands from (410, 502, and 629) nm to (419, 548, and 578) nm.
Reactions of (a) 5 μM of DNIC–COOMe with 5 μM of metMb in the presence of 200 μM of Cys, (b) 5 μM of DNIC–COOH/DNIC–COOMe with 5 μM of deoxyMb in the presence of 200 μM of Cys, and (c) 5 μM of DNIC–COOH/DNIC–COOMe with 5 μM of metMb in the presence of 50 mg/mL BSA were performed under a similar manner.

HCEC = experiment: Intracellular release of NO (DAF-FM fluorescence) in HCEC; assay type: cell-based, human; conditions: 75 μM DNIC–COOH or 1 μM DNIC–COOMe
Protocol: (§1) Intracellular release of NO by DNIC–COOH was validated using the fluorescence probe 4-amino-5-methylamino-2′,7′-difluorofluorescein diacetate (DAF-FM) in combination with fluorescence analysis techniques. Briefly, the MSC cells (or N2a and HCEC cells) were seeded onto a 96-well black plate at a density of 6 × 10^3 cells/well (or 1 × 10^4 cells/well for N2a and 8 × 10^3 cells/well for HCEC cells) and incubated at 37 °C overnight. On the next day, the MSC cells were first treated with 10 μM of DAF-FM (or 5 μM for N2a and HCEC cells) and incubated at 37 °C for 0.5 h. […] Fluorescence intensity of the cells was then recorded using a microplate reader (SpectraMax iD3, Molecular Devices, San Jose, CA) with an excitation wavelength at 485 nm and an emission wavelength at 525 nm. Three independent experiments were executed to measure the time-dependent change of average fluorescence intensity. Time-dependent change of average fluorescence intensity for the MSC/N2a/HCEC cells with sequential treatment of DAF-FM (10 μM for MSC cells, 5 μM for N2a cells, 5 μM for HCEC cells; 0.5 h) and DNIC–COOMe (2.5 μM for MSC cells, 10 μM for N2a cells, 1 μM for HCEC cells) was determined in a similar manner. […]

N2a = experiment: Intracellular release of NO (DAF-FM fluorescence) in N2a; assay type: cell-based, mouse; conditions: 100 μM DNIC–COOH or 10 μM DNIC–COOMe
Protocol: as §1

MSC = experiment: Intracellular release of NO (DAF-FM fluorescence) in MSC; assay type: cell-based, human; conditions: 100 μM DNIC–COOH or 2.5 μM DNIC–COOMe
Protocol: as §1

BSA = biological target: T2, BSA (Bos taurus, UniProt P02769); experiment: Formation and degradation of albumin-bound DNIC in cell culturing media with FBS (EPR); assay type: in vitro ADME, bovine
T2 construct: 2 mL of αMEM with the presence of 20% FBS; from tissue; host or cells: fetal bovine serum (FBS) in αMEM / MEM / HSFM culture media
Protocol: 50 μM of DNIC–COOH was prepared via addition of 1 μL of 100 mM stock solution of DNIC–COOH in DMSO to 2 mL of αMEM with the presence of 20% FBS. After this solution was incubated at 37 °C for 0, 0.5, 1, 2, 3, 4, 8, and 24 h, respectively, EPR spectra of 100 μL aliquots of this solution were measured. Moreover, double integration of the EPR signal was executed to obtain the integrated EPR signal intensity under each condition, which was further utilized to characterize the time-dependent formation and degradation of BSA-bound DNIC. EPR investigations on the formation and degradation of protein-bound DNICs upon incubation of (1) 50 μM DNIC–COOMe in αMEM with the presence of 20% FBS, (2) 50 μM DNIC–COOH (or DNIC–COOMe) in MEM with the presence of 5% FBS, and (3) 50 μM DNIC–COOH (or DNIC–COOMe) in HSFM with the presence of 2% FBS were performed in a similar manner. In addition, EPR spectra for 50 μM of DNIC–COOH (or 50 μM of DNIC–COOMe) in αMEM, MEM, and HSFM, respectively, were also measured.

T1 sequence (P68082 2-154 limits assumed): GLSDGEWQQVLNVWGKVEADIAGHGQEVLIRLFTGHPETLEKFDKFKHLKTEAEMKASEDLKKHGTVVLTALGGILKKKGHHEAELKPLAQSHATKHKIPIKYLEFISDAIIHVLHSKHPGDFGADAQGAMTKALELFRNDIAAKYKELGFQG
T2 sequence (P02769 25-607): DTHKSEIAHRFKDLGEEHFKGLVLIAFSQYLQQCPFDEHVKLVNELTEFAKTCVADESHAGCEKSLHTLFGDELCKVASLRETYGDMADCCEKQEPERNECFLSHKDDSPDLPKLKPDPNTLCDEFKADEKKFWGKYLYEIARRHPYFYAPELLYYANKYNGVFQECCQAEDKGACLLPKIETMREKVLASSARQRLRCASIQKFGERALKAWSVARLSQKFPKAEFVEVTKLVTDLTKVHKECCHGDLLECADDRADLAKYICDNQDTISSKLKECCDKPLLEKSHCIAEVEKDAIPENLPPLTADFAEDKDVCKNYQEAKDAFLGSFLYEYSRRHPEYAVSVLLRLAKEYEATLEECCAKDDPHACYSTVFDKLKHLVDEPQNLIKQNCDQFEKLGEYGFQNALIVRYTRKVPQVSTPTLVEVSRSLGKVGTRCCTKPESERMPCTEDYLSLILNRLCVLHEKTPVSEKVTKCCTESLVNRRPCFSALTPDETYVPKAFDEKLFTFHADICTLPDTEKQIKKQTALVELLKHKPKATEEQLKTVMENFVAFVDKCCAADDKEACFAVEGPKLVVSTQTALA

O=[N][Fe]1([N]=O)[SH](CCC(=O)O)[Fe]([N]=O)([N]=O)[SH]1CCC(=O)O (centres unmarked) [DNIC–COOH, [(NO)2Fe(μ-SCH2CH2COOH)2Fe(NO)2]]
reaction time for complete conversion of metMb into MbNO (metMb): 4 h and 4.0 ^f h
reaction time for complete conversion of metMb into MbNO (metMb; listed as DNIC-COOH): 4.0 h
change of UV–vis absorption bands of metMb (NO−-transfer) (metMb): no change
tmax for intracellular release of NO (HCEC): 6 h
tmax for intracellular release of NO (N2a): 4 h
tmax for intracellular release of NO (MSC): 4 h
binding to BSA yielding albumin-bound DNIC (BSA): slow binding

COC(=O)CC[SH]1[Fe]([N]=O)([N]=O)[SH](CCC(=O)OC)[Fe]1([N]=O)[N]=O (centres unmarked) [DNIC–COOMe, [(NO)2Fe(μ-SCH2CH2COOCH3)2Fe(NO)2]]
reaction time for complete conversion of metMb into MbNO (metMb): 4.0 ^f h
reaction time for complete conversion of metMb into MbNO (metMb; listed as DNIC-COOMe): 4.0 h
change of UV–vis absorption bands of metMb (NO−-transfer) (metMb): no change
tmax for intracellular release of NO (HCEC): 1 h
tmax for intracellular release of NO (N2a): 2 h
tmax for intracellular release of NO (MSC): 1 h
binding to BSA yielding albumin-bound DNIC (BSA): rapid binding
